Data published in PubChem BioAssay (NCI).
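Briefly, cells in 96-well plates were exposed to five compound concentrations for 48 h, and endpoints were estimated by linear interpolation. GI50 is the concentration that inhibits growth by half. TGI marks complete inhibition of growth.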

Columns and labels:
Experiment in all cases: growth of human tumour cells (NCI), 48 h
COLO 205 colon = system: COLO 205 colon
HOP-62 NSCLC = system: HOP-62 NSCLC
OVCAR-5 ovarian = system: OVCAR-5 ovarian
OVCAR-3 ovarian = system: OVCAR-3 ovarian
HCC-2998 colon = system: HCC-2998 colon
KM12 colon = system: KM12 colon
HCT-116 colon = system: HCT-116 colon
SN12C renal = system: SN12C renal
OVCAR-4 ovarian = system: OVCAR-4 ovarian
IGROV1 ovarian = system: IGROV1 ovarian
SF-268 CNS = system: SF-268 CNS
T-47D breast = system: T-47D breast
SW-620 colon = system: SW-620 colon
MALME-3M melanoma = system: MALME-3M melanoma
HT29 colon = system: HT29 colon
ACHN renal = system: ACHN renal
NCI-H460 lung = system: NCI-H460 lung
CAKI-1 renal = system: CAKI-1 renal
HS 578T breast = system: HS 578T breast
A549 NSCLC = system: A549 NSCLC
SF-539 CNS = system: SF-539 CNS
HL-60(TB) leukemia = system: HL-60(TB) leukemia
DU-145 prostate = system: DU-145 prostate
UACC-257 melanoma = system: UACC-257 melanoma
SK-MEL-2 melanoma = system: SK-MEL-2 melanoma
U251 CNS = system: U251 CNS
EKVX NSCLC = system: EKVX NSCLC
SK-OV-3 ovarian = system: SK-OV-3 ovarian
MDA-MB-231 breast = system: MDA-MB-231 breast
LOX IMVI melanoma = system: LOX IMVI melanoma
OVCAR-8 ovarian = system: OVCAR-8 ovarian
BT-549 breast = system: BT-549 breast
M14 melanoma = system: M14 melanoma
SK-MEL-5 melanoma = system: SK-MEL-5 melanoma
SF-295 CNS = system: SF-295 CNS
HOP-92 NSCLC = system: HOP-92 NSCLC
RXF 393 renal = system: RXF 393 renal
MOLT-4 leukemia = system: MOLT-4 leukemia
HCT-15 colon = system: HCT-15 colon
UO-31 renal = system: UO-31 renal
TK-10 renal = system: TK-10 renal
NCI-H522 lung = system: NCI-H522 lung
PC-3 prostate = system: PC-3 prostate
MCF7 breast = system: MCF7 breast
K-562 leukemia = system: K-562 leukemia
UACC-62 melanoma = system: UACC-62 melanoma
SNB-75 CNS = system: SNB-75 CNS
CCRF-CEM leukemia = system: CCRF-CEM leukemia
786-0 renal = system: 786-0 renal
NCI/ADR-RES ovarian = system: NCI/ADR-RES ovarian
NCI-H226 lung = system: NCI-H226 lung
SK-MEL-28 melanoma = system: SK-MEL-28 melanoma
RPMI-8226 leukemia = system: RPMI-8226 leukemia
SNB-19 CNS = system: SNB-19 CNS
MDA-MB-435 = system: MDA-MB-435
A498 renal = system: A498 renal

COc1ccc2c(c1)c(-c1cc(N)n3nc(-c4cn(C)c5ccc(OC)cc45)cc3n1)cn2C
GI50 (COLO 205 colon): 1700 nM
TGI (COLO 205 colon): 3190 nM
GI50 (HOP-62 NSCLC): 1810 nM
TGI (HOP-62 NSCLC): 3670 nM
GI50 (OVCAR-5 ovarian): 1840 nM
TGI (OVCAR-5 ovarian): 3580 nM
GI50 (OVCAR-3 ovarian): 1750 nM
TGI (OVCAR-3 ovarian): 3170 nM
GI50 (HCC-2998 colon): 1870 nM
TGI (HCC-2998 colon): 3320 nM
GI50 (KM12 colon): 1850 nM
TGI (KM12 colon): 3510 nM
GI50 (HCT-116 colon): 1500 nM
TGI (HCT-116 colon): 3100 nM
GI50 (SN12C renal): 2020 nM
TGI (SN12C renal): 3980 nM
GI50 (OVCAR-4 ovarian): 2040 nM
TGI (OVCAR-4 ovarian): 4270 nM
GI50 (IGROV1 ovarian): 2000 nM
TGI (IGROV1 ovarian): 4140 nM
GI50 (SF-268 CNS): 2030 nM
TGI (SF-268 CNS): 4400 nM
GI50 (T-47D breast): 1700 nM
TGI (T-47D breast): 3500 nM
GI50 (SW-620 colon): 1020 nM
TGI (SW-620 colon): 2410 nM
GI50 (MALME-3M melanoma): 1870 nM
TGI (MALME-3M melanoma): 3650 nM
GI50 (HT29 colon): 1730 nM
TGI (HT29 colon): 3140 nM
GI50 (ACHN renal): 1790 nM
TGI (ACHN renal): 3250 nM
GI50 (NCI-H460 lung): 1790 nM
TGI (NCI-H460 lung): 3520 nM
GI50 (CAKI-1 renal): 1790 nM
TGI (CAKI-1 renal): 3460 nM
GI50 (HS 578T breast): 2570 nM
TGI (HS 578T breast): 6670 nM
GI50 (A549 NSCLC): 1700 nM
TGI (A549 NSCLC): 3310 nM
GI50 (SF-539 CNS): 1780 nM
TGI (SF-539 CNS): 3270 nM
GI50 (HL-60(TB) leukemia): 1310 nM
TGI (HL-60(TB) leukemia): 3980 nM
GI50 (DU-145 prostate): 1800 nM
TGI (DU-145 prostate): 3190 nM
GI50 (UACC-257 melanoma): 1780 nM
TGI (UACC-257 melanoma): 3630 nM
GI50 (SK-MEL-2 melanoma): 1830 nM
TGI (SK-MEL-2 melanoma): 3460 nM
GI50 (U251 CNS): 1820 nM
TGI (U251 CNS): 3490 nM
GI50 (EKVX NSCLC): 1840 nM
TGI (EKVX NSCLC): 3670 nM
GI50 (SK-OV-3 ovarian): 2140 nM
TGI (SK-OV-3 ovarian): 4310 nM
GI50 (MDA-MB-231 breast): 1840 nM
TGI (MDA-MB-231 breast): 3490 nM
GI50 (LOX IMVI melanoma): 2040 nM
TGI (LOX IMVI melanoma): 3640 nM
GI50 (OVCAR-8 ovarian): 1750 nM
TGI (OVCAR-8 ovarian): 3290 nM
GI50 (BT-549 breast): 3230 nM
TGI (BT-549 breast): 12000 nM
GI50 (M14 melanoma): 1740 nM
TGI (M14 melanoma): 3420 nM
GI50 (SK-MEL-5 melanoma): 1790 nM
TGI (SK-MEL-5 melanoma): 3250 nM
GI50 (SF-295 CNS): 1880 nM
TGI (SF-295 CNS): 3440 nM
GI50 (HOP-92 NSCLC): 1880 nM
TGI (HOP-92 NSCLC): 4250 nM
GI50 (RXF 393 renal): 1870 nM
TGI (RXF 393 renal): 3570 nM
GI50 (MOLT-4 leukemia): 1950 nM
TGI (MOLT-4 leukemia): 4880 nM
GI50 (HCT-15 colon): 1150 nM
TGI (HCT-15 colon): 2780 nM
GI50 (UO-31 renal): 1660 nM
TGI (UO-31 renal): 3190 nM
GI50 (TK-10 renal): 1810 nM
TGI (TK-10 renal): 3600 nM
GI50 (NCI-H522 lung): 1740 nM
TGI (NCI-H522 lung): 3410 nM
GI50 (PC-3 prostate): 1840 nM
TGI (PC-3 prostate): 3930 nM
GI50 (MCF7 breast): 1250 nM
TGI (MCF7 breast): 2740 nM
GI50 (K-562 leukemia): 392 nM
TGI (K-562 leukemia): > 100000 nM
GI50 (UACC-62 melanoma): 1960 nM
TGI (UACC-62 melanoma): 3870 nM
GI50 (SNB-75 CNS): 2130 nM
TGI (SNB-75 CNS): 6270 nM
GI50 (CCRF-CEM leukemia): 436 nM
TGI (CCRF-CEM leukemia): 7460 nM
GI50 (786-0 renal): 1640 nM
TGI (786-0 renal): 3410 nM
GI50 (NCI/ADR-RES ovarian): 2070 nM
TGI (NCI/ADR-RES ovarian): 4520 nM
GI50 (NCI-H226 lung): 2060 nM
TGI (NCI-H226 lung): 4250 nM
GI50 (SK-MEL-28 melanoma): 1850 nM
TGI (SK-MEL-28 melanoma): 3460 nM
GI50 (RPMI-8226 leukemia): 1780 nM
TGI (RPMI-8226 leukemia): 6150 nM
GI50 (SNB-19 CNS): 2500 nM
TGI (SNB-19 CNS): 6690 nM
GI50 (MDA-MB-435): 1910 nM
TGI (MDA-MB-435): 3740 nM
GI50 (A498 renal): 1840 nM
TGI (A498 renal): 3680 nM
